Like-named read-outs stand apart in the source and are kept apart here.
How the values were obtained:
[1] = tested on: Champions Tumor Graft models CTG-1171; settings: cited from earlier work
[2] = tested on: Human stomach cancer cell line, NCI-N87; experiment: Antitumor evaluation in model with tumor recurrence following administration of trastuzumab emtansine (NCI-N87 subcutaneous xenograft); format: in vivo, nude mice (BALB/cAJcl-nu/nu); settings: for TV (mm^3) on Day43 Mean ± SD: Step 2, Day 43, Compound 1 60 mg/kg/day p.o. Days 1-42, trastuzumab emtansine 10 mg/kg/day i.v. Days 1, 22, n=9
Description: Human stomach cancer cell line, NCI-N87, was obtained from American Type Culture Collection (ATCC). The cell line was cultured in a RPMI-1640 medium (containing 4.5 g/L glucose, 10 mM HEPES and 1 mM sodium pyruvate) (Wako Pure Chemical Corporation) containing 10% fetal bovine serum (FBS) at 37° C. in a 5% CO2 incubator.
The NCI-N87 cells were resuspended in PBS to a concentration of 10^8 cells/mL. A 1-mL tuberculin syringe with a 25G needle was used to subcutaneously transplant […] cells/0.1 mL each of the cell suspension into the right chests of 6-week-old nude mice (BALB/cAJcl-nu/nu, CLEA Japan, Inc.).
The tumor diameter was measured with a digital caliper by holding the long diameter and the short diameter of the tumor between the measuring surfaces of the digital caliper for each mouse. Measurements took place at a frequency of once in 2-5 days including the day of group sorting and the day of judgement. The tumor volume (TV) was calculated based on these long and short diameters. The relative tumor volume (RTV) and the rate of change in the relative tumor volume (T/C) were calculated from the calculated tumor volume. TV, RTV and T/C were calculated according to the following equations. Tumor volume TV(mm^3)=(Long diameter, mm)×(Short diameter, mm)×(Short diameter, mm)/2 Relative tumor volume RTV=(TV on day of measurement)/(TV on day of dividing into groups) Rate of change in relative tumor volume T/C (%)=(Mean RTV of treated group)/(Mean RTV of control group)×100
The tumor diameters and weights were measured with time to calculate TV and BWC.
Eighteen nude mice confirmed with tumor recurrence in Step 1 were selected, and 9 animals were assigned to each group by equal distribution (MiSTAT (ver.2.0)) as follows such that the mean TV of each group was uniform (Day 1, i.e., Day 85 as counted from Step 1). Compound 1 was prepared to 6 mg/mL with a 0.1N HCl solution, and the resultant was orally administered once a day on Days 1-42 consecutively. […] The tumor diameters and weights were measured with time to calculate TV and BWC.

[3] = tested on: Champions Tumor Graft models CTG-1171; experiment: Anti-tumor effect using cancer patient-derived cells (CTG-1171 PDX, Test Example 2); format: in vivo, nude mice (Athymic Nude-Foxn1nu)
Description: Champions Tumor Graft models CTG-1171 (Champions Oncology, Inc.) having the profiles shown in Tables 5-8 were transplanted into Stock mice (Athymic Nude-Foxn1^nu, Envigo). Once the tumor volume of the transplanted tumor reached 1,000-1,500 mm^3, the tumor was taken out and a fragment thereof of about 65 mm^3 was subcutaneously transplanted into the left side of 7-week-old nude mice (Athymic Nude-Foxn1^nu, Envigo). Tumor diameters were measured twice a week with a digital caliper. TV was calculated according to the following equation. TV (mm^3)=Width (mm)^2×Length (mm)×0.52
Ten individuals whose tumor volumes reached 150-300 mm^3 were assigned to each group (Day 0).
(§1) Compound 1 was prepared to have a predetermined concentration with a 0.1N HCl solution, and the resultant was orally administered once a day on Days 0-27 consecutively. Tumor diameters were measured twice a week with a digital caliper. The rate of change in the weight of the mouse was calculated in the same manner as Test example 1 above. Mice observed with weight loss by 10% or more as compared to Day 0 were given DietGel (registered trademark).
The anti-tumor effect of the drug was evaluated according to tumor growth inhibition (TGI), which was calculated by the following equation. TGI=(100%×[1−(TV of treated group on Day 27−TV of treated group on Day 0)/(TV of control group on Day 27−TV of control group on Day 0)])

[4] = Body weight change / toxicity judgement in CTG-1171 PDX model (Test Example 2); format: in vivo; settings: 60 mg/kg/day p.o. Days 0-27
Description: as §1
In addition, the presence of toxicity was judged as follows: a dose observed with a weight loss of 20% or more or a mortality rate of 10% or more was judged to have exceeded the MTD (maximum tolerated dose) and thus toxicity was present.

[5] = tested on: Breast cancer (primary), HER2 +; settings: single patient; neighbouring lines without a result appear to be partners of the same regimen; cited from earlier work
[6] = value on first line of a two-line group (apparent combination): Capecitabine 5 with Lapatinib 1 mg/kg/day, once a day for 21 days p.o., Gemcitabine with Nab-paclitaxel, dose not given

CCCCCOC(=O)Nc1nc(=O)n([C@@H]2O[C@H](C)[C@@H](O)[C@H]2O)cc1F [Capecitabine]
TGI (%) [1, 6]: 96%

C=CC(=O)N1CCC[C@@H](n2nc(C(=O)Nc3ccc(CC(=O)N(C)C)c(C)c3C)c3c(N)ncnc32)C1 [Compound 1, (R)-1-(1-acryloylpiperidine-3-yl)-4-amino-N-(4-(2-(dimethylamino)-2-oxoethyl)-2,3-dimethylphenyl)-1H-pyrazolo[3,4-d]pyrimidine-3-carboxamide]
TV versus trastuzumab emtansine-administered group on day of judgement (Day 43) ([2]; Aspin-Welch's t-test, Compound 1 60 mg/kg/day p.o.): significantly lower | T/C (%) ([2]; Day 43, mean TV of Compound 1 group / mean TV of trastuzumab emtansine group × 100, 60 mg/kg/day p.o. Days 1-42): 25.4% | TV (mm^3) on Day43 Mean ± SD [2]: 107.29 ± 37.76 mm^3 | TV versus control-administered group on Day 27 ([3]; 60 mg/kg/day p.o. Days 0-27): significantly lower | TV (mm^3) on Day0 Mean ± SD ([3]; Day 0 (group assignment, baseline), n=10): 196 ± 22 mm^3 | TV (mm^3) on Day27 Mean ± SD ([3]; Day 27, 60 mg/kg/day p.o. Days 0-27, n=10): 162 ± 27 mm^3 | TGI (%) ([3]; Day 27 versus Day 0, versus control, 60 mg/kg/day p.o. Days 0-27): 112% | decrease of average rate of change in the weight during the administration period [4]: < 5% | judgement of the dose (tolerability) [4]: tolerable | BWG(%) on Day27 Mean ([4]; Day 27): −0.60%

CC(=O)O[C@@]12CO[C@@H]1C[C@H](O)[C@@]1(C)C(=O)[C@H](O)C3=C(C)[C@@H](OC(=O)[C@H](O)[C@@H](NC(=O)OC(C)(C)C)c4ccccc4)C[C@@](O)([C@@H](OC(=O)c4ccccc4)[C@H]21)C3(C)C [Docetaxel]
Result (treatment history before acquiring tumor tissue) [5]: Responded

C=C1C[C@@H]2CC[C@@]34C[C@H]5O[C@H]6[C@@H](O3)[C@H]3O[C@H](CC[C@@H]3O[C@H]6[C@H]5O4)CC(=O)C[C@@H]3[C@@H](OC)[C@@H](C[C@H](O)CN)O[C@H]3C[C@H]3O[C@@H](CC[C@@H]1O2)C[C@@H](C)C3=C [Eribulin]
Result (treatment history after acquiring tumor tissue) [5]: No response

Nc1ccn([C@@H]2O[C@H](CO)[C@@H](O)C2(F)F)c(=O)n1 [Gemcitabine]
TGI (%) [1, 6]: 28%

CS(=O)(=O)CCNCc1ccc(-c2ccc3ncnc(Nc4ccc(OCc5cccc(F)c5)c(Cl)c4)c3c2)o1 [Lapatinib]
Result (treatment history after acquiring tumor tissue) [5]: No response

CO[C@H]1C[C@@H]2CC[C@@H](C)[C@@](O)(O2)C(=O)C(=O)N2CCCC[C@H]2C(=O)O[C@H]([C@H](C)C[C@@H]2CC[C@@H](OC(=O)C(C)(CO)CO)[C@H](OC)C2)CC(=O)[C@H](C)/C=C(\C)[C@@H](O)[C@@H](OC)C(=O)[C@H](C)C[C@H](C)/C=C/C=C/C=C/1C [Temsirolimus]
TGI (%) ([1]; single agents, Nab-paclitaxel 0.5 mg/kg/day once a week for 3 weeks i.v., Temsirolimus 0.5 once a week for 5 weeks i.p., Trastuzumab 15 once a week for 8 weeks i.v., Afatinib dose not given): 59%

Bevacizumab
Result (treatment history before acquiring tumor tissue) [5]: No response

Trastuzumab emtansine
tumor course after administration of trastuzumab emtansine (FIG. 1) ([2]; Step 1, 10 mg/kg/day i.v. on Days 1, 22, 43, 64, n=36): tumor shrinkage was confirmed for once by administration of trastuzumab emtansine but tumor recurrence was confirmed on Day 85 | TV (mm^3) on Day43 Mean ± SD [2]: 421.92 ± 143.78 mm^3 | Result (treatment history after acquiring tumor tissue) [5]: No response | Result (treatment history before acquiring tumor tissue) [5]: No response
